The nature of the series: saturation vapor pressure. The format is physicochemical.
In turn, `CCCOC(C)COC(C)CO` (centres unmarked) [DPGPE, dipropylene glycol-n-propyl ether] came in with a Saturation vapor pressure of 0.03 hPa.
For `COCC(C)O` (centres unmarked) [PGME, propylene glycol methyl ether] the value was 8.71 hPa; for `COCC(C)OC(C)=O` (centres unmarked) [PGMEA, propylene glycol methyl ether acetate], 5 hPa; for `CCOCC(C)O` (centres unmarked) [PGEE, propylene glycol ethyl ether], 9.4 hPa.
Under `CCCOCC(C)O` (centres unmarked) [PGPE, propylene glycol-n-propyl ether] stands 2.21 hPa.

These data come from patent US7357832B2, “Water base pigment ink for ink-jet recording, ink cartridge accommodating the same, and ink-jet recording method” (Brother Kogyo Kabushiki Kaisha, priority 2004, dated 2008).
